From patent US10610539B2, “Cardiac glycoside analogs and their use in methods for inhibition of viral infection” (priority 2013, dated 2020)

Columns and labels:
[1] = test system: Human Foreskin Fibroblasts (HFFs); assay type: cell-based; settings: for cell cycle progression after mimosine arrest: HFFs treated with mimosine 48 hours, washed, treated one day
Experimental: Flow Cytometry: 1×10^5 HFFs from infected-treated or untreated conditions were washed with cold PBS. Cells were suspended in 70% pre-cooled alcohol. Cells were permeabilized in −20° C. for at least 2 hours followed by centrifugation at 5000 rpm for 5 minutes. The supernatants were discarded and cells were washed with cold PBS three times. Cells were re-suspended in 500 ul PBS, propidium iodide was added to a final concentration of 20-50 μg/ml and cells were incubated at room temperature for at least 10 minutes before applying them on flow machine.
The differences between the MTT and trypan blue assay complicated the calculation of antiviral selectivity. […] After 3 day serum starvation cells were released from serum starvation, infected with Towne HCMV and treated with digitoxin or the cardiac glycoside ouabain for 24 hours. HFFs were stained with propidium iodide and subjected to cell cycle analysis by flow cytometry.

[2] = test system: Towne HCMV; settings: previously reported by the inventors; cited from earlier work
[3] = test system: Herpes Simplex Virus 1 (HSV1); settings: reported; cited from earlier work
[4] = test system: breast cancer patients; settings: women with breast cancer taking digoxin vs. 34% not taking digitalis; cited from earlier work

| Structure (SMILES) | cell cycle progression ([1]; HFFs released from 3 day serum starvation, infected with Towne HCMV, treated 24 hours) | cell cycle progression after mimosine arrest [1] | inhibition of Towne HCMV replication [2] | inhibition of Herpes Simplex Virus 1 (HSV1) [3] | death rate [4] |
| --- | --- | --- | --- | --- | --- |
| C[C@@H]1O[C@@H](O[C@H]2C[C@@H](O)[C@]3(CO)[C@H]4[C@H](O)C[C@]5(C)[C@@H](C6=CC(=O)OC6)CC[C@]5(O)[C@@H]4CC[C@]3(O)C2)[C@H](O)[C@H](O)[C@H]1O [ouabain] | arrested HFFs in G1 | could not relieve HFFs from cell cycle arrest induced by mimosine | potent inhibitors of Towne HCMV replication | inhibit Herpes Simplex Virus 1 (HSV1) in nanomolar concentrations | – |
| C[C@H]1O[C@@H](O[C@H]2[C@@H](O)C[C@H](O[C@H]3[C@@H](O)C[C@H](O[C@H]4CC[C@@]5(C)[C@H](CC[C@@H]6[C@@H]5C[C@@H](O)[C@]5(C)[C@@H](C7=CC(=O)OC7)CC[C@]65O)C4)O[C@@H]3C)O[C@@H]2C)C[C@H](O)[C@@H]1O [digoxin] | – | – | potent inhibitors of Towne HCMV replication | inhibit Herpes Simplex Virus 1 (HSV1) in nanomolar concentrations | 6% |
| Nc1nc(O)c2ncn(COC(CO)CO)c2n1 [GCV, ganciclovir] | – | allowed the cells to normally progress in the cell cycle | – | – | – |
